Experimental findings from ChEMBL document CHEMBL1152470, “Antimicrobial activities of tigecycline and other broad-spectrum antimicrobials tested against serine carbapenemase- and metallo-beta-lactamase-producing Enterobacteriaceae: report from the SENTRY Antimicrobial Surveillance Program” (2008) are described below.

Format in all cases: functional
Assay [1] has as its system Enterobacteriaceae. Put plainly: Antimicrobial activity against carbapenemase producing Enterobacteriaceae assessed as susceptible isolates by CLSI breakpoint assay.
Assay [2] relates to Enterobacter sp. Put plainly: Antimicrobial activity against carbapenemase producing Enterobacter sp. assessed as resistant isolates by CLSI breakpoint assay.
The test system of assay [3] is Klebsiella sp. Put plainly: Antimicrobial activity against Klebsiella sp. assessed as resistant isolates by CLSI breakpoint assay.
The subject of assay [4] is Klebsiella sp. Put plainly: Antimicrobial activity against Klebsiella sp. assessed as susceptible isolates by CLSI breakpoint assay.
In assay [5] the test system is Klebsiella sp. The experiment in a line: Antimicrobial activity against Klebsiella sp. by CLSI broth microdilution method. A general note: In broth dilution the organism is exposed to a series of concentrations in liquid medium.
Assay [6] concerns Enterobacter sp. The experiment in a line: Antimicrobial activity against carbapenemase producing Enterobacter sp. by CLSI broth microdilution method.
In assay [7] the test system is Enterobacteriaceae. The experiment in a line: Antimicrobial activity against carbapenemase producing Enterobacteriaceae by CLSI broth microdilution method.
The subject of assay [8] is Enterobacter sp. The experiment in a line: Antimicrobial activity against carbapenemase producing Enterobacter sp. assessed as susceptible isolates by CLSI breakpoint assay.
Assay [9] relates to Enterobacteriaceae. Put plainly: Antimicrobial activity against carbapenemase producing Enterobacteriaceae assessed as resistant isolates by CLSI breakpoint assay.
In assay [10] the test system is Enterobacteriaceae. The experiment in a line: Antimicrobial activity against Enterobacteriaceae.
Assay [11] deals with Proteus mirabilis. The experiment in a line: Antimicrobial activity against Proteus mirabilis.
In assay [12] the test system is Enterobacter cloacae. Put plainly: Antimicrobial activity against VIM1 carbapenemase producing Enterobacter cloacae […].
For assay [13], the system named is Enterobacter cloacae. Put plainly: Antimicrobial activity against KPC2 carbapenemase producing Enterobacter cloacae […].
In assay [14] the test system is Enterobacter hormaechei. The experiment in a line: Antimicrobial activity against KPC2 carbapenemase producing Enterobacter hormaechei […].
Assay [15] deals with Enterobacter cloacae. The experiment in a line: Antimicrobial activity against IMP1 carbapenemase producing Enterobacter cloacae […].
Assay [16] has as its system Enterobacter cloacae. Put plainly: Antimicrobial activity against KPC2/3 carbapenemase producing Enterobacter cloacae […].
In assay [17] the test system is Citrobacter freundii. The experiment in a line: Antimicrobial activity against KPC2/3 carbapenemase producing Citrobacter freundii […].
The subject of assay [18] is Enterobacter cloacae. The experiment in a line: Antimicrobial activity against NMC-A carbapenemase producing Enterobacter cloacae […].
Assay [19] deals with Escherichia coli. Put plainly: Antimicrobial activity against KPC2/3 carbapenemase producing Escherichia coli […].
In assay [20] the test system is Serratia marcescens. The experiment in a line: Antimicrobial activity against KPC2/3 carbapenemase producing Serratia marcescens […].
The test system of assay [21] is Klebsiella pneumoniae. Put plainly: Antimicrobial activity against KPC2/3 carbapenemase producing Klebsiella pneumoniae […].
The test system of assay [22] is Citrobacter freundii. Put plainly: Antimicrobial activity against KPC2 carbapenemase producing Citrobacter freundii […].
Assay [23] has as its system Serratia marcescens. The experiment in a line: Antimicrobial activity against SME1 carbapenemase producing Serratia marcescens […].
For assay [24], the system named is Klebsiella pneumoniae. The experiment in a line: Antimicrobial activity against KPC2 carbapenemase producing Klebsiella pneumoniae […].
Assay [25] relates to Citrobacter freundii. The experiment in a line: Antimicrobial activity against KPC3 carbapenemase producing Citrobacter freundii […].
Assay [26] relates to Klebsiella pneumoniae. The experiment in a line: Antimicrobial activity against VIM1 carbapenemase producing Klebsiella pneumoniae […].
Assay [27] concerns Klebsiella oxytoca. Put plainly: Antimicrobial activity against KPC3 carbapenemase producing Klebsiella oxytoca […].
Assay [28] has as its system Klebsiella oxytoca. Put plainly: Antimicrobial activity against KPC2/3 carbapenemase producing Klebsiella oxytoca […].
Assay [29] concerns Pluralibacter gergoviae. Put plainly: Antimicrobial activity against KPC3 carbapenemase producing Enterobacter gergoviae […].
The subject of assay [30] is Klebsiella oxytoca. Put plainly: Antimicrobial activity against KPC2 carbapenemase producing Klebsiella oxytoca […].

≈ marks a conversion by molar mass, not a printed value.

One may read the MIC50 as an inhibitory concentration at the 50% level, which refers to growth in some studies and to a panel of isolates in others. What is called MIC90 is the lowest concentration that inhibits either 90% of growth or 90% of the strains tested, depending on the study. The low end stands for greater potency, the high end for weaker potency. On to `C[C@@H](O)[C@H]1C(=O)N2C(C(=O)O)=C(S[C@@H]3CN[C@H](C(=O)Nc4cccc(C(=O)O)c4)C3)[C@H](C)[C@H]12`, for which the Activity worked out at 7.7% in assay [1]; 12.5% in [2]; 83.3% in assay [3]; 5% in [4]; 8.3% in [8]; 73.1% in assay [9]. In addition, the figures for the MIC50 in assay [5], in [6] and in assay [7] were greater than 8 µg/mL, greater than 8 µg/mL and 8 µg/mL (≈ 16.8 µM), respectively. Moreover, the MIC90 in assay [5] is greater than 32 µg/mL; in assay [6] it was greater than 16 µg/mL; in assay [7] it was 32 µg/mL (≈ 67.3 µM).

As to `NCC[C@H](O)C(=O)N[C@@H]1C[C@H](N)[C@@H](O[C@H]2O[C@H](CN)[C@@H](O)[C@H](O)[C@H]2O)[C@H](O)[C@H]1O[C@H]1O[C@H](CO)[C@@H](O)[C@H](N)[C@H]1O` [AMIKACIN], the Activity in [1] is 73.3%; in assay [2], 4.8%; in [3], 13.3%; in assay [4], 53.3%; in assay [8], 95.2%; in assay [9], 8.3%. For the same compound, the MIC50 came out at 16 µg/mL (≈ 27.3 µM) in assay [5], 2 µg/mL (≈ 3.42 µM) in [6] and 8 µg/mL (≈ 13.7 µM) in assay [7]. The MIC90 in assay [5] was greater than 32 µg/mL; in [6], 16 µg/mL (≈ 27.3 µM); in assay [7] it was 32 µg/mL (≈ 54.6 µM).

Broadly, the MIC is the smallest concentration in the dilution series that meets the test's criterion for growth inhibition. A high value points to weaker potency. With `C[C@@H](O)[C@H]1C(=O)N2C(C(=O)O)=C(S[C@@H]3CN[C@H](C(=O)N(C)C)C3)[C@H](C)[C@H]12` [MEROPENEM], the Activity is reported as 32.7% in assay [1]; 41.7% in assay [2]; 61.7% in [3]; 20% in assay [4]; 33.3% in [8]; 50% in [9]. Besides, the MIC in assay [10] is no less than 2 µg/mL; in [11], no less than 16 µg/mL. The MIC50 in assay [5] is greater than 8 µg/mL; in assay [6] it was 8 µg/mL (≈ 20.9 µM); in assay [7], 8 µg/mL (≈ 20.9 µM). Besides, the MIC90 in [5], in [6] and in [7] was greater than 8 µg/mL throughout.

With GENTAMICIN, the Activity in assay [1] was 73.3%; in assay [2], 38.1%; in [3], 31.2%; in assay [4], 58.3%; in assay [8], 42.9%. Moreover, the MIC50 in assay [5] was less than 2 µg/mL; in [6], 8 µg/mL; in assay [7] it was 4 µg/mL. Moreover, the MIC90 in assay [5], in assay [6] and in assay [7] was greater than 8 µg/mL throughout.

For POLYMYXIN B, the Activity in assay [1] was determined as 88.1%; in assay [2] it was 4.8%; in assay [3], 6.7%; in [4], 93.3%; in assay [8], 95.2%; in [9], 11.9%. Besides, the MIC50 in assay [5], in assay [6] and in assay [7] was less than 1 µg/mL throughout. Besides, the MIC90 was less than 1 µg/mL in assay [5], less than 1 µg/mL in [6] and 4 µg/mL in assay [7].

Consider `CN(C)c1cc(NC(=O)CNC(C)(C)C)c(O)c2c1C[C@H]1C[C@H]3[C@H](N(C)C)C(O)=C(C(N)=O)C(=O)[C@@]3(O)C(O)=C1C2=O` [TIGECYCLINE], for which the MIC in assay [12] stood at 0.25 µg/mL (≈ 0.427 µM); in [13], 0.5 µg/mL (≈ 0.854 µM); in assay [14], 2 µg/mL (≈ 3.41 µM); in assay [15], 0.25 µg/mL (≈ 0.427 µM); in [16], 0.12 µg/mL (≈ 0.205 µM); in [17], 0.25 µg/mL (≈ 0.427 µM). In addition, the minimum inhibitory concentration (MIC) turned out to be 0.12 µg/mL (≈ 0.205 µM) in [18]; 0.12 µg/mL (≈ 0.205 µM) in assay [19]; 0.5 µg/mL (≈ 0.854 µM) in assay [20]; 0.25 µg/mL (≈ 0.427 µM) in [21]; 1 µg/mL (≈ 1.71 µM) in [22]; 0.5 µg/mL (≈ 0.854 µM) in assay [23]. The MIC turned out to be 1 µg/mL (≈ 1.71 µM) in assay [24]; 0.12 µg/mL (≈ 0.205 µM) in [25]; 0.12 µg/mL (≈ 0.205 µM) in assay [26]; 0.5 µg/mL (≈ 0.854 µM) in [27]; 0.25 µg/mL (≈ 0.427 µM) in assay [28]; 0.25 µg/mL (≈ 0.427 µM) in [29]. For the same compound, inhibition of growth in assay [30] (MIC) required 0.12 µg/mL (≈ 0.205 µM). Moreover, the Activity stood at 100% in assay [1]; 0% in assay [2]; 0% in assay [3]; 100% in assay [4]; 100% in assay [8]; 0% in assay [9]. In addition, the MIC50 turned out to be 1 µg/mL (≈ 1.71 µM) in assay [5], 0.25 µg/mL (≈ 0.427 µM) in assay [6] and 0.5 µg/mL (≈ 0.854 µM) in assay [7]. Besides, the results for the MIC90 in assay [5], in [6] and in assay [7] were 2 µg/mL (≈ 3.41 µM), 0.5 µg/mL (≈ 0.854 µM) and 1 µg/mL (≈ 1.71 µM), respectively.

On to `CN(C)[C@@H]1C(O)=C(C(N)=O)C(=O)[C@@]2(O)C(O)=C3C(=O)c4c(O)cccc4[C@@](C)(O)[C@H]3C[C@@H]12` [TETRACYCLINE], for which the Activity in [1] is recorded as 35.6%; in assay [2] it was 20.8%; in [3] it was 13.3%; in assay [4], 66.7%; in assay [8] it was 70.8%; in assay [9], 19.2%. In addition, the MIC50 in assay [5], in [6] and in [7] was 4 µg/mL (≈ 9 µM) in each case. In addition, the MIC90 in [5], in [6] and in assay [7] was greater than 8 µg/mL in each case.

For the compound `C[C@@H](O)[C@H]1C(=O)N2C(C(=O)O)=C(SCCNC=N)C[C@H]12` [IMIPENEM ANHYDROUS], the Activity stood at 37.5% in assay [1]; 17.7% in assay [2]; 46.7% in assay [3]; 21.7% in assay [4]; 54.2% in [8]. The MIC50 in [5] turned out to be 8 µg/mL (≈ 26.7 µM); in assay [6] it was 4 µg/mL (≈ 13.4 µM); in [7] it was 8 µg/mL (≈ 26.7 µM). Besides, the MIC90 in [5] was 16 µg/mL (≈ 53.4 µM); in assay [6], greater than 8 µg/mL; in assay [7], greater than 8 µg/mL.
